Laboratory results from patent publication US20060079453A1, “Hla binding peptides and their uses” (priority 2002, published 2006).
No end group written: not given here.

How the values were obtained:
Test in all cases: biochemical
Format in all cases: binding
[1] = target: HLA-DR DRB5*0101 (DR51) (Homo sapiens, UniProt P01903+Q30154); details: DRB5 *0101
[2] = target: HLA-DR DRB1*0301 (DR3) (Homo sapiens, UniProt P01903+P01911, A100K/A102G/A103R/A169T/F55Y/I96L/K41T/L162R/M171V/P40S/Q125H/Q178H/Q39Y/R42S/S66N/T106N/T262R/W38E/Y61H)
[3] = target: HLA-DR DRB1*0701 (DR7) (Homo sapiens, UniProt P01903+P01911, A100R/A102G/A103Q/D57E/D86V/E43K/F76Y/K127E/L162R/M171V/P40G/Q125H/Q99D/R33Q/R42Y/R54Q/S133A/S66F/T210M/V115G/Y107V/Y59L/Y89S); details: DRB1 *0701
[4] = target: HLA-DR DRB1*1501 (DR15) (Homo sapiens, UniProt P01903+P01911); details: DRBI *1501
[5] = target: HLA-DR DRB1*0901 (DR9) (Homo sapiens, UniProt P01903+P01911, A100R/A103E/D57H/D86V/F55Y/F60I/F76Y/I96F/K127E/L162R/M171V/P40D/Q125H/Q99R/R33Q/R42F/S133A/S66N/T210M/V115G/W38K/Y107V/Y59G/Y89S); details: DRB1 *0901
[6] = target: HLA-DR DRB1*0802 (DR8) (Homo sapiens, UniProt P01903+P01911, A100R/A103L/A169T/F76Y/H45Y/I96F/K41T/L162R/M171V/P40S/Q125H/Q178H/Q39Y/Q99D/R218S/R42G/S66Y/V115G/W38E)
[7] = target: HLA-DR DRB1*1302 (DR13) (Homo sapiens, UniProt P01903+P01911, A100E/A169T/K41T/L162R/M171V/P40S/Q125H/Q178H/Q39Y/Q99D/R42S/S66N/T262R/V115G/W38E/Y61H); details: DRBI *1302
[8] = target: HLA-DR DRB4*0101 (DR53) (Homo sapiens, UniProt P01903+P13762, G164S); details: DRB4 *0101
[9] = target: HLA-DR DRB1*1101 (DR11) (Homo sapiens, UniProt P01903+P01911, A100R/A169T/A87E/I96F/K41T/L162R/M171V/P40S/Q125H/Q178H/Q39Y/Q99D/R42S/S66Y/T262R/V115G/W38E); details: DRB1 *1101
[10] = target: HLA-DR DRB1*0401 (DR4) (Homo sapiens, UniProt P01903+P01911, A100K/A169T/F76Y/I96L/K127E/L162R/M171V/N62H/P40V/Q125Y/R42H/S133A/S149N/S66Y/V115G/V209L/W38E); details: DRB1 *0401
[11] = target: HLA-DR DRB3*0101 (DR52) (Homo sapiens, UniProt P01903+P79483)
[12] = target: HLA-DR DRB1*0101 (DR1) (Homo sapiens, UniProt P01903+P01911, A100R/D57E/F55L/F60I/F76Y/I96L/L162R/M171V/P40L/Q125E/R42F/V115G/Y59C); details: DRB1 *0101

Sequence of HLA-DR DRB1*1101 (DR11) (P01903 26-254 limits assumed, other chains not shown): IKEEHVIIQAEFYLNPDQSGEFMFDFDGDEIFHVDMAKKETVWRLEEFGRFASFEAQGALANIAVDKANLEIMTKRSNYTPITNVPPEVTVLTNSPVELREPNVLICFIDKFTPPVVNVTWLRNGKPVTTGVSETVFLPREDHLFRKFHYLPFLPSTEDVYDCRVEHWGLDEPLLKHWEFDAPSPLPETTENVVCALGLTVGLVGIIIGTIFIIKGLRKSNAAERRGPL
Sequence of HLA-DR DRB1*0301 (DR3) (P01903 26-254 limits assumed, other chains not shown): as above
Sequence of HLA-DR DRB1*1302 (DR13) (P01903 26-254 limits assumed, other chains not shown): as above

Compound | IC50 [1] [nM] | IC50 [2] [nM] | IC50 [3] [nM] | IC50 [4] [nM] | IC50 [5] [nM] | IC50 [6] [nM] | IC50 [7] [nM] | IC50 [8] [nM] | IC50 [9] [nM] | IC50 [10] [nM] | IC50 [11] [nM] | IC50 [12] [nM]
CC[C@H](C)[C@H](NC(=O)[C@H](CCCCN)NC(=O)[C@H](CCSC)NC(=O)[C@H](CC(=O)O)NC(=O)[C@H](CCCNC(=N)N)NC(=O)[C@H](CCC(=O)O)NC(=O)[C@H](CC(C)C)NC(=O)[C@H](CCCCN)NC(=O)[C@H](Cc1ccccc1)NC(=O)[C@@H](N)Cc1ccccc1)C(=O)N[C@@H](CC(N)=O)C(=O)N[C@@H](CS)C(=O)N[C@@H](CO)C(=O)NCC(=O)N[C@@H](CCCCN)C(=O)O | 3800 | 121 | > 23100 | > 3490 | > 52300 | 8110 | 382 | 98 | 9690 | 483 | 4920 | 4420
HPQWVLTAAHCLKKN | 11 | 1100 | 563 | 1220 | 822 | 1690 | 483 | 1110 | 981 | 875 | 8110 | 22
CC[C@H](C)[C@H](NC(=O)[C@H](CO)NC(=O)[C@H](CO)NC(=O)[C@H](CC(=O)O)NC(=O)[C@H](C)NC(=O)[C@H](CC(N)=O)NC(=O)[C@@H](NC(=O)[C@H](Cc1ccc(O)cc1)NC(=O)[C@H](C)NC(=O)[C@@H](N)C(C)C)[C@@H](C)CC)C(=O)N[C@@H](CCC(=O)O)C(=O)NCC(=O)N[C@@H](CC(N)=O)C(=O)N[C@@H](Cc1ccc(O)cc1)C(=O)N[C@H](C(=O)O)[C@@H](C)O | > 37800 | 531 | 9740 | > 3490 | 5470 | 106000 | 2150 | 841 | > 18900 | 411 | 471 | 4720
CC[C@H](C)[C@H](NC(=O)[C@@H]1CCCN1C(=O)[C@@H](N)CC(N)=O)C(=O)N[C@@H](CC(C)C)C(=O)N[C@@H](CC(C)C)C(=O)N[C@@H](Cc1c[nH]c2ccccc12)C(=O)N[C@@H](CCC(N)=O)C(=O)N1CCC[C@H]1C(=O)N[C@H](C(=O)N1CCC[C@H]1C(=O)N[C@H](C(=O)N[C@@H](Cc1c[nH]cn1)C(=O)N[C@H](C(=O)N[C@H](C(=O)N1CCC[C@H]1C(=O)O)C(C)C)[C@@H](C)O)C(C)C)[C@@H](C)CC | 25000 | > 81800 | 41 | 4.6 | 575 | 13000 | 250 | 67 | 599 | 206 | > 8830 | 31
YLVTGERGFFYTPKT | > 28400 | 517 | 7740 | > 25600 | 6300 | 29200 | 2100 | 20700 | 7620 | > 20500 | 13700 | 779
CSCC[C@H](NC(=O)[C@H](CC(C)C)NC(=O)[C@H](CC(=O)O)NC(=O)[C@@H](N)Cc1c[nH]cn1)C(=O)N[C@@H](CC(C)C)C(=O)N[C@@H](CC(C)C)C(=O)N[C@@H](CCCNC(=N)N)C(=O)N[C@@H](CC(C)C)C(=O)N[C@@H](CO)C(=O)N[C@@H](CCC(=O)O)C(=O)N1CCC[C@H]1C(=O)N[C@@H](C)C(=O)N[C@@H](CCC(=O)O)C(=O)N[C@@H](CC(C)C)C(=O)N[C@H](C(=O)O)[C@@H](C)O | 10500 | 2870 | 152 | 662 | 22 | 3910 | 2.3 | 45 | 2140 | 6190 | 5310 | 62
CSCC[C@H](NC(=O)[C@@H]1CCCN1C(=O)[C@@H](N)CC(=O)O)C(=O)N[C@@H](Cc1ccccc1)C(=O)N[C@@H](CCCCN)C(=O)N[C@@H](Cc1ccc(O)cc1)C(=O)N[C@@H](Cc1c[nH]cn1)C(=O)N[C@@H](CC(C)C)C(=O)N[C@H](C(=O)N[C@H](C(=O)N[C@@H](C)C(=O)N[C@@H](CCC(N)=O)C(=O)N[C@H](C(=O)N[C@@H](CCCNC(=N)N)C(=O)NCC(=O)O)C(C)C)C(C)C)[C@@H](C)O | 11 | > 75000 | 168 | 230 | 258 | 43 | 699 | 467 | 69 | 9.1 | 7300 | 5.7
CC(C)C[C@H](NC(=O)[C@H](CO)NC(=O)[C@H](CC(C)C)NC(=O)[C@H](CO)NC(=O)[C@H](C)NC(=O)[C@H](C)NC(=O)[C@H](CCCNC(=N)N)NC(=O)[C@H](C)NC(=O)[C@H](CC(C)C)NC(=O)[C@H](CC(C)C)NC(=O)[C@H](CC(C)C)NC(=O)[C@@H]1CCCN1C(=O)[C@H](C)NC(=O)[C@H](C)N)C(=O)NCC(=O)O | 79 | 35400 | 160 | 35 | 64 | 30 | 3.2 | 79 | 100 | – | 10500 | 6.8
NSRLLQERGVAYINA | 3470 | 318 | 8000 | 1230 | 2620 | 3220 | 327 | 699 | 12800 | – | 3370 | 614
